Data published in patent publication US20230113802A1, “COMPOSITION AND METHOD TO PREPARE LONG-ACTING INJECTABLE SUSPENSION CONTAINING MULTIPLE CANCER DRUGS” (University of Washington, priority 2020, published 2023).
Marks after values point to notes of the source that are not given here.

Assays:
[1] = Mechanism-based pharmacokinetic modeling (MBPK) of DcNP associated and dissociated GT; design: species or system mice; conditions: for V, DcNP Dissociated Parameter: fitted to CrEL data
Description: Briefly, the model adopted here for GT is composed of two sub-models representing DcNP-associated drug and dissociated drug species. Each sub-model has a central compartment and a peripheral compartment. The observed plasma concentration is the sum of DcNP-associated and dissociated species since they cannot be measured separately. […] These parameters were then fixed and the linked sub-models were fitted to the observed total concentrations for G and T obtained after injection of the DcNP-dose. The model reasonably assumed that the pharmacokinetics of drugs released from particles will be the same as that of the free-drug (CrEL) control. It was assumed that G and T are released from the particle at independent rates (k1,3) in the central compartment and only dissociated drugs are subject to clearance from the system (k0,1). […] The peripheral compartment features purely drug exchange between plasma and a group of slowly equilibrating tissues (k4,3, k3,4). In other words, the DcNP-associated drug is cleared only via its release from the particles in the central compartment. […] MBPK modeling and parameter estimations were performed using SAAM II v2.3.
To further understand the effect of DcNP on the pharmacokinetic behavior of GT, a mechanism-based pharmacokinetic model (MBPK) was used to simulate the time course of DcNP-associated and dissociated drugs in plasma. The MBPK model adapted for GT-DcNPs is based on a validated MBPK model developed for long-acting HIV drug combination nanoparticles tested in non-human primates. Experimentally, the total drug concentrations in plasma (i.e., DcNP-associated plus dissociated) can be measured, but DcNP-associated and dissociated drugs could not be distinguished. […] The MBPK model presented in FIG. 4 utilizes data from both DcNP and CrEL control formulation treated animals to estimate plasma concentrations of DcNP-associated and dissociated drug species over time and their respective time-averaged fractions in vivo. After intravenous administration as a DcNP, GT can theoretically exist in at least two species: DcNP-associated drug and dissociated drug. The latter can be reasonably assumed to distribute and be cleared as free G and T after administration of CrEL control formulation.
Individual distribution, metabolism and elimination of G and T are well characterized. […] T is metabolized in the liver primarily by CYP3A4 and CYP2C8 with subsequent excretion of metabolites into the bile. In this model, the k0,1 term represents the aggregate elimination processes of G and T through their independent described pathways. A peripheral compartment for both G and T was added and distribution was parameterized with the k1,2 and k2,1 terms. […] With these assumptions in place, the k1,3 term was set to link the two sub-models and represent the release mechanism of drug from DcNP into the central compartment. The DcNP associated species of G and T was then parameterized with the k4,3 and k3,4 to account for distribution.

[2] = system: K-562 cells; experiment: Leukemic cell uptake of free versus DcNP-associated drug, K-562; format: cell-based, human
Experimental: (§1) FIGS. 13A-13D are a series of graphs showing the intracellular drug concentrations following incubation with free or DcNP-bound drug. Three leukemic cell lines were incubated with either free or DcNP-bound drug over four hours, and intracellular drug concentration was measured via LC-MS/MS. Both free drugs show relatively little drug uptake compared to the DcNP formulation. Free drug concentrations are roughly a quarter of the DcNP drug concentrations.
(§2) To quantify drug concentrations (both DcNP-bound and free drug), an extraction protocol was established to quantify venetoclax and zanubrutinib. In short, drug was solubilized by diluting the sample into ethyl acetate, liberating it from either the DcNP lipid matrix, mouse plasma, or both. Following centrifugation to remove organic material, the samples were dried with nitrogen gas, reconstituted in acetonitrile, and loaded onto an LC-MS/MS. Drug concentrations were quantified by comparing sample data with standard curves prepared from untreated mouse plasma spiked with known amounts of drug.
(§3) Separations were carried out on a Synergi column (100×2.0 mm) (Phenomenex, Torrance, USA). A C8 guard column (4.0×2.0 mm) was used (Phenomenex, USA). The separations were done under ambient temperature, and the flow rate was set to 0.55 ml/min. The mobile phase for the separations consisted of buffers A (water with 20 mM ammonium acetate) and B (acetonitrile). The single mobile phase ran for five minutes, and it consisted of 25% buffer A and 75% buffer B.
(§4) HL-60 cells were cultured, counted, and aliquoted into multiple 1.5 mL Eppendorf tubes. A free drug solution of ABT-199 and BGB-3111 (1:1 w/w) was added to half of the tubes, while a DcNP solution of identical drug concentrations was added to the second half of tubes. The cells in the tubes were then allowed to incubate normally. At preselected time points, one incubation tube from each group was removed from the incubator, and the cells inside were washed twice with media to remove external drug and DcNP's. Cells were then lysed with acetonitrile, and drug concentrations were quantified according to the aforementioned extraction and LC-MS/MS protocol.

[3] = system: K-562 cells; experiment: AlamarBlue cell growth inhibition, K-562; format: cell-based; conditions: Homo sapiens; for EC50: 120 h, K562 (Bcl-2 −, BTK +), 5 days, read-out: Inhibitory effects (EC50); for IC50: K562, 120 h, K-562, five days, read-out: IC50 (sensitivity)
Experimental: K-562 cells (human leukemia) were purchased from ATCC (Manassas, USA). Additional human leukemic cell lines, MOLT-4 and HL-60, were a generous gift from Carrie Cummings at Fred Hutchinson Cancer Research Center (Seattle, USA). All cells were cultured in Gibco RPMI medium 1640 with Gibco 1% 100×Antibiotic-Antimycotic (Thermo Fisher Scientific, Waltham, USA) and 10% fetal bovine serum. Cells were selected for their different protein expression levels of Bruton's Tyrosine Kinase (BTK) and B Cell Lymphoma 2 (Bcl-2); HL-60 cells express both BTK and Bcl-2, while K-562 and MOLT-4 cells only express BTK and Bcl-2, respectively.
Each cell line was seeded separately into Costar® Black 96-well Assay Plates (Corning USA). Within 1 hr, varying concentrations of individual free drug (ABT-199 or BGB-3111), a combination of both free drugs (w/w 1:1), or a combination of drugs within DcNP's were added to the cells. Following a 5-day incubation, growth of treated cells was compared to untreated cells, quantified using an AlamarBlue Cell Viability Assay (Thermo Fisher Scientific, Waltham, USA) with a PerkinElmer 1420 Multilabel Counter plate reader. Prism graphing software (GraphPad) was used to analyze the absorbance data and to assess relative cell growth.
The effects of DcNP formulation on the effectiveness of ABT-199 and BGB-3111 to inhibit cells that express Bcl-2 and BTK targets is shown in Table 6. Three immortalized human cell lines were selected based on their expression of Bcl-2 (B-cell lymphoma 2; target of venetoclax) and BTK (Bruton's tyrosine kinase; target of zanubrutinib). Cell lines were seeded in 96-well plates at 75,000 cells per well. In separate sets of wells, venetoclax and zanubrutinib were incubated with the cells for 5 days individually as free drug, together as free drug, and together as the drug combination nanoformulation. An AlamarBlue assay was performed to determine relative inhibition of cell growth due to drug presence.

[4] = system: HL-60 cells; experiment: Leukemic cell uptake of free versus DcNP-associated drug, HL-60; format: cell-based, human; conditions: up to 4 hours
Experimental: as §1, §2, §3, §4

[5] = model derived, single IV dose in GT DcNP dosage form
[6] = model derived, single IV dose in GT DcNP dosage form, listed as G
[7] = K-562, incubation with free drug
[8] = HL-60, incubation with free drug (1:1 w/w)

| peak intracellular drug concentration ([2]; K-562, incubation with DcNP's) [ng/million cells] | peak intracellular drug concentration [2, 7] [ng/million cells] | EC50 [3] [µg/mL] | IC50 [3] [µg/mL] | peak intracellular drug concentration ([4]; HL-60, incubation with DcNP's) [ng/million cells] | peak intracellular drug concentration [4, 8] [ng/million cells] | Structure (SMILES) | VDcNP, DcNP Associated Parameter [1, 5] | further results |
| --- | --- | --- | --- | --- | --- | --- | --- | --- |
| – | – | – | – | – | – | Nc1ccn([C@@H]2O[C@H](CO)[C@@H](O)C2(F)F)c(=O)n1 [Gemcitabine, 4-amino-1-[(2R,4R,5R)-3,3-difluoro-4-hydroxy-5-(hydroxymethyl)oxolan-2-yl]pyrimidin-2-one] | 5.2 ± 0.6 mL | decrease of estimated volume of central compartment, DcNP compared to CrEL [1]: 4.6 times; release parameter (k1,3) of G lower than T ([1]; GT DcNP): 9.5 fold; K0,1, DcNP Dissociated Parameter [1, 5]: 3.9 ± 0.9 h⁻¹; K1,2, DcNP Dissociated Parameter [1, 5]: 0.5 ± 0.2 h⁻¹; K1,3 (release parameter), DcNP Associated Parameter [1, 5]: 0.2 ± 0.02 h⁻¹; K2,1, DcNP Dissociated Parameter [1, 5]: 0.2 ± 0.1 h⁻¹; K3,4, DcNP Associated Parameter [1, 5]: 0.6 ± 0.1 h⁻¹; K4,3, DcNP Associated Parameter [1, 5]: 1.8 ± 0.5 h⁻¹; V, DcNP Dissociated Parameter [1, 5]: 24 ± 12 mL; V, DcNP Dissociated Parameter [1, 6]: 24 mL; K1,3 (release parameter), DcNP Associated Parameter [1, 6]: 0.2 h⁻¹; VDcNP, DcNP Associated Parameter [1, 6]: 5.2 mL |
| – | – | – | – | – | – | CC(=O)O[C@H]1C(=O)[C@@]2(C)[C@H]([C@H](OC(=O)c3ccccc3)[C@]3(O)C[C@H](OC(=O)[C@H](O)[C@@H](NC(=O)c4ccccc4)c4ccccc4)C(C)=C1C3(C)C)[C@]1(OC(C)=O)CO[C@@H]1C[C@@H]2O [Paclitaxel, [(1S,2S,3R,4S,7R,9S,10S,12R,15S)-4,12-diacetyloxy-15-[(2R,3S)-3-benzamido-2-hydroxy-3-phenylpropanoyl]oxy-1,9-dihydroxy-10,14,17,17-tetramethyl-11-oxo-6-oxatetracyclo[11.3.1.0^3,10.0^4,7]heptadec-13-en-2-yl] benzoate] | 0.8^a mL | – |
| 647 | 192 | 16 | 15.9 | 674 | 192 | CC1(C)CCC(CN2CCN(c3ccc(C(=O)NS(=O)(=O)c4ccc(NCC5CCOCC5)c([N+](=O)[O-])c4)c(Oc4cnc5[nH]ccc5c4)c3)CC2)=C(c2ccc(Cl)cc2)C1 [Venetoclax, 4-[4-[[2-(4-chlorophenyl)-4,4-dimethylcyclohexen-1-yl]methyl]piperazin-1-yl]-N-[3-nitro-4-(oxan-4-ylmethylamino)phenyl]sulfonyl-2-(1H-pyrrolo[2,3-b]pyridin-5-yloxy)benzamide] | – | – |
| 647 | 109 | 8.4 | 8.3 | 256 | 69 | C=CC(=O)N1CCC([C@@H]2CCNc3c(C(N)=O)c(-c4ccc(Oc5ccccc5)cc4)nn32)CC1 [Zanubrutinib, (7S)-2-(4-phenoxyphenyl)-7-(1-prop-2-enoylpiperidin-4-yl)-4,5,6,7-tetrahydropyrazolo[1,5-a]pyrimidine-3-carboxamide] | – | – |
